Patent publication US12240839B2, “Cyclobutyl dihydroquinoline sulfonamide compounds” (AMGEN INC., priority 2020, dated 2025)
Read-outs that look alike come from different tables or passages of the source.

Key:
Human Nav1.7 = Human Nav1.7 (Homo sapiens (Human), UniProt Q15858); test: IonWorks Barracuda (IWB) automated patch clamp assay; assay type: cell-based; conditions: human Nav1.7 in HEK cells, population patch-clamp, state- and use-dependent voltage protocol; read-out: hNaV1.7 IWB-U IC50
Method: IonWorks Barracuda (IWB) Automated Patch Clamp Assay (Same Protocol for Both Human and Mouse)
Human Nav1.7 currents were recorded in population patch-clamp mode with the IWB automated electrophysiology system (Molecular Devices, LLC, Sunnyvale, CA). Spiking HEK cells (without Kir2.1 transfection) were cultured and prepared for recordings as previously described for IonWorks Quattro testing^1. The external solution consisted of the following (in mM): NaCl 140, KCl 5, CaCl2 2, MgCl2 1, HEPES 10, and glucose 11, pH 7.4, with N-methyl-D-glucamine at 320 mOsmol. […] From a holding potential of −110 mV, currents were elicited by a train of 26 depolarizations of 150 ms duration to −20 mV at a frequency of 5 Hz. Cells were then clamped to −20 mV for a period of 4 minutes in the presence of a single concentration of test compound. Following this compound incubation period, cells were clamped to −110 mV for three seconds to recover unbound channels and put through the same 26 pulse voltage protocol as above. Peak inward current during the 26th pulse to −20 mV in the presence of compound was divided by the peak inward current evoked by the 26th pulse to −20 mV in the absence of compound to determine percent inhibition. Concentration-response curves of percent inhibition as a function of concentration were generated to calculate IC50 values as described in Kornecook, T. J.; Yin, R.; Altmann, S.; et al. Pharmacologic Characterization of AMG8379, a Potent and Selective Small Molecule Sulfonamide Antagonist of the Voltage-Gated Sodium Channel NaV1. 7.
The potency of the compounds of the present invention were evaluated on human Nav1.7 channels using the above described IonWorks Barracuda automated electrophysiology platform that evaluates the ability of compounds to block sodium conductance through Nav1.7 channels. A voltage-protocol that prosecutes both state-dependent as well as use-dependent inhibition was used as these modes of action are thought to be more relevant for the native state of Nav1.7 channels in pain sensing neurons in vivo.

CYP3A4 [1] = conditions: hepatocytes
Method: Human CYP3A4 Induction Assay
(§1) Cryopreserved human hepatocytes were seeded in 96-well collagen coated plates at 70,000 cells per well in hepatocyte plating media (HPM, final concentrations: 1× Dulbecco's Modified Eagle's Medium, 0.1 μM dexamethasone, 10% fetal bovine serum, 1×ITS, 1×PSG) followed by incubation at 37° C. under 5% CO2 and 90% relative humidity for 2 days to allow hepatocytes to form a confluent layer. On Day 3, hepatocytes were treated with either test compound or rifampin (20 μM, positive control for CYP3A induction) prepared in hepatocyte incubation media ((HIM, final concentrations: 1× William's Medium E, 0.1 μM dexamethasone, 1×ITS, 1×PSG). Treatment was performed for 72 hours with either 2 concentrations (2 μM or 10 μM) or a range of concentrations (0.001 μM to 100 μM) of the test compound to obtain full dose-response curve. Fresh media containing the relevant concentrations of the test compound was replaced every day until the samples were processed. After 72 hours of incubation, samples were processed for mRNA analysis using bDNA technology using manufacturer's instructions (Affymetrix, Fremont, CA). Cell viability was tested at the end of the experiment using MTT assay kit (Roche Diagnostics, Basel, Switzerland). Data was analyzed and presented as percent of control (POC) and Emax and EC50 obtained when appropriate according to guidance from Center for Drug Evaluation and Research (CDER), 2006, Guidance for Industry, Drug Interaction Studies—Study Design, Data Analysis, and Implications for Dosing and Labeling.

CYP3A4 [2] = test: Human CYP3A4 induction assay (mRNA, cryopreserved human hepatocytes); conditions: 10 uM test compound, 72 hours, percent of control (rifampin positive control)
Method: Human CYP3A4 Induction Assay
as §1

Sequence of Human Nav1.7 (Q15858 whole entry): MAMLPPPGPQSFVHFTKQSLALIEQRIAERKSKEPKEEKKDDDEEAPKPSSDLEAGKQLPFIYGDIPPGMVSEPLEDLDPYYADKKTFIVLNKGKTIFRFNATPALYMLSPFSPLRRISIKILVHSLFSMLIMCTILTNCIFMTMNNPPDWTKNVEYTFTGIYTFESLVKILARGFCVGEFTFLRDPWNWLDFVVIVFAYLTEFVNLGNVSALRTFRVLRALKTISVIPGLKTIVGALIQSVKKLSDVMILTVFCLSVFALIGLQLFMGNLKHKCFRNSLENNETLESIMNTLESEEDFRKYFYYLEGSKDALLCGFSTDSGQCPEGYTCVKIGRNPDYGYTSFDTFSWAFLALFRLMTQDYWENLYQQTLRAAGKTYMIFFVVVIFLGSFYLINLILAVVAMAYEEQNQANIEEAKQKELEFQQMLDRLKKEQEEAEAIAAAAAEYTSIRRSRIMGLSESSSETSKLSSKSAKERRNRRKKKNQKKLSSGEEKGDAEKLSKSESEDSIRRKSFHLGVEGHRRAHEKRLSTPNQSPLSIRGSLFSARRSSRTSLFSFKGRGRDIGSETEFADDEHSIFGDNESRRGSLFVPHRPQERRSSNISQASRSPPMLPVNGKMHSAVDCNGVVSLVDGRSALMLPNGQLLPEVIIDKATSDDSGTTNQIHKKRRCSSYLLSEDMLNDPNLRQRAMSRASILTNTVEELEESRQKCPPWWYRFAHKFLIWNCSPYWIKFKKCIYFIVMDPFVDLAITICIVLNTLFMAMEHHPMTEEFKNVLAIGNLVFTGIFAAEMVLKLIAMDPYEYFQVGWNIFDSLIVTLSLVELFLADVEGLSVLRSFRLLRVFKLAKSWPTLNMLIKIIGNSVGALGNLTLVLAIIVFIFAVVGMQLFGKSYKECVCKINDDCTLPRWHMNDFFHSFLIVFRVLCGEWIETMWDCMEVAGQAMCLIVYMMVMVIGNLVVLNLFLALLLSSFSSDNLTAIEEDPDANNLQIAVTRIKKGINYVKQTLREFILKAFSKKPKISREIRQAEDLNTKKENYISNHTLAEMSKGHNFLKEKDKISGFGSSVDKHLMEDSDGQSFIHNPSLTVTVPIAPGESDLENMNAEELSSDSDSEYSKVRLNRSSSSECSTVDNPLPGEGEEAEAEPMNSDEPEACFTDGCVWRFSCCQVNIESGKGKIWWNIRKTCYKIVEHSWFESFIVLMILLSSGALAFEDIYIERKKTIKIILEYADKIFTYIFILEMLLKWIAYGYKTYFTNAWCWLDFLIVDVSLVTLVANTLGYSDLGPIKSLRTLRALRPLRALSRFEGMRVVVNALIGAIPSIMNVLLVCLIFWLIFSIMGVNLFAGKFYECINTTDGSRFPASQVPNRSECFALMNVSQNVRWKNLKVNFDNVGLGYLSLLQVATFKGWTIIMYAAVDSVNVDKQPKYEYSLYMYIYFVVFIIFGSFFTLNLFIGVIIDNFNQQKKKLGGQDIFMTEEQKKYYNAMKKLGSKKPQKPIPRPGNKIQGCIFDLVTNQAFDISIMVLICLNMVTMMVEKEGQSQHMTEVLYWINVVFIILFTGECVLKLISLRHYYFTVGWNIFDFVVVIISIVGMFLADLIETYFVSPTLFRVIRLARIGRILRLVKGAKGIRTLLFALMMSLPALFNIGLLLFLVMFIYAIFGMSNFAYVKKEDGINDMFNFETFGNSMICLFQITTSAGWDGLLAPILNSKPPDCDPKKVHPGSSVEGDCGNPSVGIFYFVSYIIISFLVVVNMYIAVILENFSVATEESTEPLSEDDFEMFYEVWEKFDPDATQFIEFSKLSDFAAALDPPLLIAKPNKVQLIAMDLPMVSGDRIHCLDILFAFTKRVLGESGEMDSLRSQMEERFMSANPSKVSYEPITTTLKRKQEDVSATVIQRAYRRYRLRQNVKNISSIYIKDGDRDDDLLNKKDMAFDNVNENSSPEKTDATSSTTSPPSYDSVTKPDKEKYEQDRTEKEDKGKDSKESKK

Row | Compound | IC50 (Human Nav1.7) | Hu CYP3A4 mRNA Induction (10 uM POC) (CYP3A4 [1]) | Hu CYP3A4 mRNA Induction (10 uM POC) (CYP3A4 [2])
1 | COc1cc([C@H]2C[C@@](F)(C(F)(F)F)C2)c(F)cc1-n1c(=O)ccc2cc(S(=O)(=O)Nc3ccon3)ccc21 (atropisomer, axis not shown; (P)) [Example 8, trans-(P)-1-(5-fluoro-4-(3-fluoro-3-(trifluoromethyl)cyclobutyl)-2-methoxyphenyl)-N-(isoxazol-3-yl)-2-oxo-1,2-dihydroquinoline-6-sulfonamide] |  | 10.51% | 
2 | COc1cc([C@H]2C[C@H](C(F)(F)F)C2)c(C)cc1-n1c(=O)ccc2cc(S(=O)(=O)Nc3ncccn3)ccc21 (atropisomer, axis not shown; (P)) [Example 37, trans-(P)-1-(2-methoxy-5-methyl-4-(3-(trifluoromethyl)cyclobutyl)phenyl)-2-oxo-N-(pyrimidin-2-yl)-1,2-dihydroquinoline-6-sulfonamide] | 62 nM |  | 
3 | COc1cc(C2CC(F)(F)C2)c(F)cc1-n1c(=O)ccc2cc(S(=O)(=O)Nc3ccon3)c(F)cc21 (atropisomer, axis not shown; (P)) [Example 41, (P)-1-(4-(3,3-difluorocyclobutyl)-5-fluoro-2-methoxyphenyl)-7-fluoro-N-(isoxazol-3-yl)-2-oxo-1,2-dihydroquinoline-6-sulfonamide] |  |  | 52.8%
4 | COc1cc(C23CC(C(F)(F)F)(C2)C3)c(F)cc1-n1c(=O)ccc2cc(S(=O)(=O)Nc3ccon3)ccc21 (atropisomer, axis not shown; (P)) [Example 42, (P)-1-(5-fluoro-2-methoxy-4-(3-(trifluoromethyl)bicyclo[1.1.1]pentan-1-yl)phenyl)-N-(isoxazol-3-yl)-2-oxo-1,2-dihydroquinoline-6-sulfonamide] |  |  | 19.25%
5 | COc1cc([C@H]2C[C@H](C(F)(F)F)C2)c(F)cc1-n1c(=O)ccc2cc(S(=O)(=O)Nc3ncco3)ccc21 (atropisomer, axis not shown; (P)) [Example 43, (P)-1-(5-fluoro-2-methoxy-4-(3-(trifluoromethyl)cyclobutyl)phenyl)-N-(oxazol-2-yl)-2-oxo-1,2-dihydroquinoline-6-sulfonamide] |  |  | 68.28%
6 | COc1cc([C@H]2C[C@H](C(F)(F)F)C2)c(F)cc1-n1c(=O)ccc2c(F)c(S(=O)(=O)Nc3ccon3)ccc21 (atropisomer, axis not shown; (P)) [Example 46, trans-(P)-5-fluoro-1-(5-fluoro-2-methoxy-4-(3-(trifluoromethyl)cyclobutyl)phenyl)-N-(isoxazol-3-yl)-2-oxo-1,2-dihydroquinoline-6-sulfonamide] |  |  | 6.6%
7 | COc1cc(C23CC(C(F)(F)F)(C2)C3)c(F)cc1-n1c(=O)ccc2cc(S(=O)(=O)Nc3ncccn3)ccc21 (atropisomer, axis not shown; (P)) [Example 47, (P)-1-(5-fluoro-2-methoxy-4-(3-(trifluoromethyl)bicyclo[1.1.1]pentan-1-yl)phenyl)-2-oxo-N-(pyrimidin-2-yl)-1,2-dihydroquinoline-6-sulfonamide] |  |  | 19.64%
8 | COc1cc(C2CC(C(C)(C)C)C2)c(F)cc1-n1c(=O)ccc2cc(S(=O)(=O)Nc3ccon3)ccc21 (racemic) [Example 2, 1-(4-(3-(tert-butyl)cyclobutyl)-5-fluoro-2-methoxyphenyl)-N-(isoxazol-3-yl)-2-oxo-1,2-dihydroquinoline-6-sulfonamide] | 25 nM |  | 
9 | COc1cc(C2CC2)c(F)cc1-n1c(=O)ccc2cc(S(=O)(=O)Nc3ccon3)ccc21 [Compound X, 1-(4-cyclopropyl-5-fluoro-2-methoxyphenyl)-N-(isoxazol-3-yl)-2-oxo-1,2-dihydroquinoline-6-sulfonamide, reference compound] |  |  | 84.31%

Results, then the compound that gave them:

Row | IC50 (Human Nav1.7) | Hu CYP3A4 mRNA Induction (10 uM POC) (CYP3A4 [1]) | Hu CYP3A4 mRNA Induction (10 uM POC) (CYP3A4 [2]) | Compound
10 | 11 nM |  |  | COc1cc(C2CC(C(F)(F)F)C2)c(F)cc1-n1c(=O)ccc2cc(S(=O)(=O)Nc3ccon3)ccc21 (atropisomer, axis not shown; (P)) [Example 6, cis-(P)-1-(5-fluoro-2-methoxy-4-(3-(trifluoromethyl)cyclobutyl)phenyl)-N-(isoxazol-3-yl)-2-oxo-1,2-dihydroquinoline-6-sulfonamide]
11 | 7 nM |  |  | COc1cc(C2CC(C(F)(F)F)C2)c(Cl)cc1-n1c(=O)ccc2cc(S(=O)(=O)Nc3ccon3)ccc21 (atropisomer, axis not shown; (P)) [Example 12, cis-(P)-1-(5-chloro-2-methoxy-4-((1S,3S)-3-(trifluoromethyl)cyclobutyl)phenyl)-N-(isoxazol-3-yl)-2-oxo-1,2-dihydroquinoline-6-sulfonamide]
12 |  |  | 110.2% | COc1cc(C2CC(F)(F)C2)c(Cl)cc1-n1c(=O)ccc2cc(S(=O)(=O)Nc3ccon3)ccc21 (atropisomer, axis not shown; (P)) [Example 48, (P)-1-(5-chloro-4-(3,3-difluorocyclobutyl)-2-methoxyphenyl)-N-(isoxazol-3-yl)-2-oxo-1,2-dihydroquinoline-6-sulfonamide]
13 |  |  | 64.94% | COc1cc([C@H]2C[C@H](C(F)(F)F)C2)c(Cl)cc1-n1c(=O)ccc2cc(S(=O)(=O)Nc3ncco3)ccc21 (atropisomer, axis not shown; (P)) [Example 49, trans (P)-1-(5-chloro-2-methoxy-4-((1R,3R)-3-(trifluoromethyl)cyclobutyl)phenyl)-N-(oxazol-2-yl)-2-oxo-1,2-dihydroquinoline-6-sulfonamide]
14 |  |  | 83.89% | COc1cc([C@H]2C[C@@H](C(F)(F)F)C2)c(F)cc1-n1c(=O)ccc2cc(S(=O)(=O)Nc3ccon3)ccc21 (single isomer, unassigned) [Example 6, cis-(P)-1-(5-fluoro-2-methoxy-4-(3-(trifluoromethyl)cyclobutyl)phenyl)-N-(isoxazol-3-yl)-2-oxo-1,2-dihydroquinoline-6-sulfonamide]
15 | 7 nM |  | 16.35% | COc1cc([C@H]2C[C@H](C(F)(F)F)C2)c(F)cc1-n1c(=O)ccc2cc(S(=O)(=O)Nc3ccon3)ccc21 (single isomer, unassigned) [Example 7, trans-(P)-1-(5-fluoro-2-methoxy-4-(3-(trifluoromethyl)cyclobutyl)phenyl)-N-(isoxazol-3-yl)-2-oxo-1,2-dihydroquinoline-6-sulfonamide]
16 |  |  | 68.98% | COc1cc([C@H]2C[C@H](C(F)(F)F)C2)c(Cl)cc1-n1c(=O)ccc2cc(S(=O)(=O)Nc3ccon3)ccc21 (single isomer, unassigned) [Example 12]
17 | 6 nM |  | 46.85% | COc1cc([C@H]2C[C@H](C(F)(F)F)C2)c(Cl)cc1-n1c(=O)ccc2cc(S(=O)(=O)Nc3ccon3)ccc21 (single isomer, unassigned) [Example 13]
18 | 7 nM |  |  | COc1cc(C2CC(OC(F)(F)F)C2)c(F)cc1-n1c(=O)ccc2cc(S(=O)(=O)Nc3ccon3)ccc21 (single isomer, unassigned) [Example 44, cis-(P)-1-(5-fluoro-2-methoxy-4-(3-(trifluoromethoxy)cyclobutyl)phenyl)-N-(isoxazol-3-yl)-2-oxo-1,2-dihydroquinoline-6-sulfonamide]
19 |  |  | 36.685% | COc1cc([C@H]2C[C@H](OC(F)(F)F)C2)c(F)cc1-n1c(=O)ccc2cc(S(=O)(=O)Nc3ccon3)ccc21 (single isomer, unassigned) [Example 45, trans-(P)-1-(5-fluoro-2-methoxy-4-(3-(trifluoromethoxy)cyclobutyl)phenyl)-N-(isoxazol-3-yl)-2-oxo-1,2-dihydroquinoline-6-sulfonamide]
